Measured values taken from patent US9725490B2, “ERAP1-derived peptide and use thereof” (TOKUSHIMA UNIVERSITY, priority 2011, dated 2017).

Legend:
[1] = tested on: ERα complex with PHB2/REA, NcoR, HDAC1, SRC-1; assay: Chromatin remodeling complex, immunoprecipitation of nuclear fraction; assay type: cell-based, human
Description: KPL-3C cells temporarily transfected with an ERE-luciferase reporter vector were treated with the ERAP1-peptide in the concentrations shown in the figure. Then, immediately, the cells were stimulated with 10 nM E2 for 24 hours. TAM indicates the tamoxifen treatment. […] KPL-3C cells were treated for 24 hours with the ERAP1-peptide and/or E2. Then, the nuclear fraction was immunoprecipitated with anti-ERα antibody or an anti-PHB2 antibody.
FIG. 4-4 is a diagram illustrating that the ERAP1-peptide promotes nuclear translocation of PHB2. […] MCF-7 cells were treated with the ERAP1-peptide and/or 10 nM E2 for 24 hours. Then, the nuclear fraction was immunoprecipitated with anti-ERα antibody or an anti-PHB2 antibody. […] MCF-7 cells were treated with the ERAP1-peptide and/or E2 for 24 hours. Then, the cell lysate was immunoprecipitated with anti-PHB2 antibody. Subsequently, the HDAC activity in the immunoprecipitate was measured with a commercially available kit. The nuclear extract from the HeLa cells and PBS were used as a positive control (P) and as negative control (N), respectively.
As described in the item of “Western blotting analysis”, the cells were lysed with a 0.1% NP-40 lysis buffer. The cell lysate was precleaned using normal IgG and rec-Protein G Sepharose 4B (Zymed, San Francisco, Calif., USA) at 4° C. for 3 hours. […]

[2] = tested on: ERα interaction with IGF-1Rβ, Shc, PI3K; Akt and MAPK phosphorylation; assay: Non-genomic activation route, immunoprecipitation/immunoblotting, MCF-7; assay type: cell-based, human
Description: MCF-7 cells were treated with the ERAP1-peptide. Then, immediately, the cells were stimulated with 10 nM E2 for 24 hours. Then, the cytoplasm fraction was immunoprecipitated with anti-ERα antibody. […] MCF-7 cells were treated with the ERAP1-peptide. Then, immediately, the cells were stimulated with 10 nM E2 for 24 hours. Then the cytoplasm fraction was immunoprecipitated with anti-ERα antibody or anti-PHB2 antibody.
FIG. 10-2 is a diagram illustrating that the ERAP1-peptide regulates E2-induced non-genomic activation route via IGF-1Rβ and Shc. […] BT-474 cells were treated with the ERAP1-peptide and/or E2 for 24 hours. Then, the cytoplasm fraction was immunoprecipitated with anti-ERα antibody.
As described in the item of “Western blotting analysis”, the cells were lysed with a 0.1% NP-40 lysis buffer. The cell lysate was precleaned using normal IgG and rec-Protein G Sepharose 4B (Zymed, San Francisco, Calif., USA) at 4° C. for 3 hours. After centrifuge separation, the supernatant was incubated in the presence of an anti-ERAP1 antibody, an anti-PHB2 antibody and an anti-ERα antibody at 4° C. for 6 hours. Then, the supernatant was incubated in the presence of rec-Protein G Sepharose 4B at 4° C. for 1 hour, to precipitate an antigen-antibody complex. The immunoprecipitated protein complex was washed with a lysis buffer three times, and separated by SDS-PAGE. Then, Western blotting analysis was performed by the method described previously (Kim J W, et al. Cancer Sci. 2009; 100: 1468-78.).

For CSCC[C@H](NC(=O)[C@H](CCC(N)=O)NC(=O)[C@H](CCCNC(=N)N)NC(=O)[C@H](CCCNC(=N)N)NC(=O)[C@H](CCCNC(=N)N)NC(=O)[C@H](CCCNC(=N)N)NC(=O)[C@H](CCCNC(=N)N)NC(=O)[C@H](CCCNC(=N)N)NC(=O)[C@H](CCCNC(=N)N)NC(=O)[C@H](CCCNC(=N)N)NC(=O)[C@H](CCCNC(=N)N)NC(=O)[C@H](CCCNC(=N)N)NC(=O)[C@@H](N)CCCNC(=N)N)C(=O)N[C@@H](CC(C)C)C(=O)N[C@@H](CO)C(=O)N[C@@H](CC(=O)O)C(=O)N[C@@H](CC(C)C)C(=O)N[C@H](C(=O)N[C@@H](CC(C)C)C(=O)N[C@@H](CCC(N)=O)C(=O)N[C@@H](CC(C)C)C(=O)N[C@@H](CCCNC(=N)N)C(=O)N[C@@H](CCC(N)=O)C(=O)N[C@@H](CCCNC(=N)N)C(=O)O)[C@@H](C)O [ERAP1-peptide], the “interaction of ERα with transcription factors” value ([1]; KPL-3C cells) was “ERα recruited NcoR and HDAC1 to form a complex”, the “interaction of ERα with transcription factors” value ([1]; MCF-7 cells) was “the binding of ERα and SRC-1 decreased, whereas ERα interacted with PHB2/REA, and further recruited NcoR and HDAC1 to form a complex” and the “binding of ERα and PI3K” value ([2]; cytoplasm fraction, 24 hours) was “inhibit the binding of ERα and PI3K”. The “binding of ERα and Shc and of ERα and IGF-1Rβ” value ([2]; cytoplasm fraction, 24 hours) was “inhibited the binding of ERα and Shc and the binding of ERα and IGF-1Rβ” and the “phosphorylation of Ser473 of Akt and phosphorylation of MAPK” value ([2]; time course to 24 hours) was “inhibited respectively within 3 hours after addition of the ERAP1-peptide, and the suppression was maintained even after 24 hours”.
